The values that follow come from patent publication US20220380378A1 (ESSA Pharma, Inc., priority 2021, published 2022).

This test has as its target T1, androgen receptor (AR) (Homo sapiens, UniProt P10275, T878A).
T1 sequence (P10275 1-920 T878A): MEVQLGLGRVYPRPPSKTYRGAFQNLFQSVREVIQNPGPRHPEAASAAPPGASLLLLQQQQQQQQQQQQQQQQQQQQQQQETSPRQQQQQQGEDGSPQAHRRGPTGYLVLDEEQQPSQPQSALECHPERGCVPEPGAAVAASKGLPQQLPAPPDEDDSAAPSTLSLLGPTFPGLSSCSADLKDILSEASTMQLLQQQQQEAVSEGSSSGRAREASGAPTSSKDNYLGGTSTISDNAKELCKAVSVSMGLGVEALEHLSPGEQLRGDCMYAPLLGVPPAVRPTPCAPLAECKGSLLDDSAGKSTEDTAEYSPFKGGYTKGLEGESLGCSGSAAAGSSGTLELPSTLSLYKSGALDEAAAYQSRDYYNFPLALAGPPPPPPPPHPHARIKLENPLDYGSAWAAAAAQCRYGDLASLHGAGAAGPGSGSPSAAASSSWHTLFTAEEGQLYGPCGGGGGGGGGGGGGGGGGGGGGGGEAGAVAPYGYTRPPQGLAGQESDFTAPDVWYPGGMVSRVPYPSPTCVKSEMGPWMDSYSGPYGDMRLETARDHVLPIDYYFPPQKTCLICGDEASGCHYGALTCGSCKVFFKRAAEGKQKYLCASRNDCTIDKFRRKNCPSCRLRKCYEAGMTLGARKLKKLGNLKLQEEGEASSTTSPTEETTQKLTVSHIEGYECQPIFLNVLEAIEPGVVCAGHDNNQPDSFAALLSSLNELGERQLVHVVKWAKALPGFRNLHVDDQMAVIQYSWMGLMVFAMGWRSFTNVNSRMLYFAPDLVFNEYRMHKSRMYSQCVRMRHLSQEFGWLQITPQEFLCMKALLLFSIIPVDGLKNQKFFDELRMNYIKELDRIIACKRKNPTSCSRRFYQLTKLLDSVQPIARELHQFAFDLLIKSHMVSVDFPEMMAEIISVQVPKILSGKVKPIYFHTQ
Briefly: Androgen-induced PSA (6.1 kb)-luciferase reporter assay in LNCaP cells (R1881 1 nM). Type of test: cell-based. More on the design: endogenous in cells; host or cells: LNCaP. Conditions: 24 h, read-out: PSA-Luc IC50 Range. The protocol:
The PSA (6.1 kb)-luciferase reporter contains functional AREs (androgen response elements) to which AR binds in response to androgen to induce luciferase activity. LNCaP cells were transiently transfected with the PSA (6.1 kb)-luciferase reporter for 24 h, and then pretreated with vehicle (DMSO) or indicated concentration of representative compounds for one hour prior to the addition of synthetic androgen, R1881 (1 nM). After 24 h of incubation with R1881, the cells were harvested, and relative luciferase activities were determined (FIG. 1). To determine the IC50, treatments were normalized to vehicle control activity induced by R1881 (Table 2).
Luciferase Assay: Cells were lysed using Passive Lysis Buffer (Promega) and then collected into V-bottom 96-well tissue culture plates. Lysates were centrifuged at 4° C. for 5 minutes at 3000 rpm. To measure luminescence of LNCaP cell lysates the Firefly Luciferase Assay System (Promega) was employed, according to manufacturer's protocol. Relative luminescence units (RLU) in cell lysates were detected for 10 seconds using Promega GloMax-Multi Detection Luminometer (Promega). Values were normalized to protein content. GraphPad Prism graphing software was used to calculate IC50 values.
Statistical analyses were performed using GraphPad Prism (Version 6.01 for Windows; La Jolla, Calif., USA). Comparisons between treatment and control groups were compared using Two-Way ANOVA with post-hoc Dunnett's and Tukey's tests. Differences were considered statistically significant at P values less than 0.05.
Usually IC50 stands for the concentration needed to halve the response being measured. In the case of `CC(C)(c1ccc(OCC2CN(S(C)(=O)=O)C2)cc1)c1cc(Cl)c(OCCCl)c(C#N)c1` [Compound A151], the IC50 is 500 to 2000 nM.
For `CC(C)(c1ccc(OCc2ccnc(NS(C)(=O)=O)n2)cc1)c1cnc(OCCCl)c(Cl)c1` [Compound A103] the value was over 2000 nM.
Turning to `CC(C)(c1ccc(OCc2ccnc(NS(C)(=O)=O)n2)c(Cl)c1)c1cc(Cl)c(OCCCl)c(C#N)c1` [Compound A102], the IC50 was in the range of 500 to 2000 nM.
For `CS(=O)(=O)N1CCN(CCc2ccc3c(ccn3-c3cc(Cl)c(OCCCl)c(C#N)c3)c2)C(=O)C1` [Compound A125] the value was over 2000 nM; for `CS(=O)(=O)N1CC(O)(COc2ccc3c(ccn3-c3cc(Cl)c(OCCCl)c(C#N)c3)c2)C1` [Compound A158], 500 to 2000 nM; for `CS(=O)(=O)Nc1nccc(COc2ccc3c(ccn3-c3cc(Cl)c(OCC4COC4)c(C#N)c3)c2)n1` [Compound A73], over 2000 nM.
For `Cn1nc(-c2cc(Cl)c(OCCCl)c(C#N)c2)c2ccc(OCc3ccnc(NS(C)(=O)=O)n3)cc21` [Compound A77] the value was over 2000 nM.
As for `CS(=O)(=O)Nc1cc(NCc2ccc3c(ccn3-c3cc(Cl)c(OCCCl)c(C#N)c3)c2)ccn1` [Compound A78], the IC50 is over 2000 nM.
On to `CC(C)(c1ccc(OCc2ccnc(NS(C)(=O)=O)n2)cc1)c1cc(Cl)c(-c2ccc(Cl)cc2)c(C#N)c1` [Compound A2, N-(4-((4-(2-(2,4′-dichloro-6-cyano-[1,1′-biphenyl]-4-yl)propan-2-yl)phenoxy)methyl)pyrimidin-2-yl)methanesulfonamide], for which the IC50 is over 2000 nM.
For `CC(C)(c1ccc(OCC23CCC(NS(C)(=O)=O)(CC2)C3)cc1)c1cc(Cl)c(OCCCl)c(C#N)c1` [Compound A272] the value was 500 to 2000 nM.
For `Cn1nc(NS(C)(=O)=O)cc1COc1ccc(C(C)(C)c2cc(Cl)c(OCCCl)c(C#N)c2)cc1` [Compound A93] the value was 500 to 2000 nM; for `CC(C)(c1ccc(OCc2ccnc(NS(C)(=O)=O)n2)cc1)c1cc(F)c(N2CCC2)c(C#N)c1` [Compound A251], 500 to 2000 nM.
For `CS(=O)(=O)N1CCN(CCc2ccc3c(ccn3-c3cc(Cl)c(OCCCl)c(C#N)c3)c2)CC1` [Compound A124] the value was 500 to 2000 nM; for `CS(=O)(=O)Nc1ncc(COc2ccc3c(ccn3-c3cc(Cl)c(OCCCl)c(C#N)c3)c2)cn1` [Compound A29, N-(5-(((1-(3-chloro-4-(2-chloroethoxy)-5-cyanophenyl)-1H-indol-5-yl)oxy)methyl)pyrimidin-2-yl)methanesulfonamide], 500 to 2000 nM; for `CS(=O)(=O)NC12CC(C(=O)Nc3ccc4c(ccn4-c4cc(Cl)c(OCCCl)c(C#N)c4)c3)(C1)C2` [Compound A133], over 2000 nM.
With `CC(C)(c1ccc(OCc2ccnc(NS(C)(=O)=O)n2)cc1)c1cc(Cl)c(N2CC3(CCC3)C2)c(C#N)c1` [Compound A267], the IC50 lay in the range of 500 to 2000 nM.
For `CS(=O)(=O)N1CCCC(Oc2ccc3c(ccn3-c3cc(Cl)c(OCCCl)c(C#N)c3)c2)CC1` (stereo not shown) [Compound A202] the value was over 2000 nM; for `CS(=O)(=O)N[C@H]1CC[C@@H](Oc2ccc3c(ccn3-c3cc(Cl)c(OCCCl)c(C#N)c3)c2)C1` [Compound A226], 500 to 2000 nM.
For `CC(C)(c1ccc(OCc2cccc(S(C)(=O)=O)c2)cc1)c1cc(Cl)c(OCCCl)c(C#N)c1` [Compound A47] the value was 500 to 2000 nM; for `CC(C)(c1ccc(OCC23CCC(NS(C)(=O)=O)(CC2)CC3)cc1)c1cc(Cl)c(OCCCl)c(C#N)c1` [Compound A273], 500 to 2000 nM; for `CS(=O)(=O)N1CCCC(COc2ccc3c(ccn3-c3cc(Cl)c(OCCCl)c(C#N)c3)c2)C1` (stereo not shown) [Compound A56], 500 to 2000 nM.
Take `CS(=O)(=O)Nc1nccc(COc2ccc3c(-c4cc(Cl)c(OCCCl)c(C#N)c4)c[nH]c3c2)n1` [Compound A218]: the IC50 is over 2000 nM.
As for `CC1(C)CN(c2c(F)cc(C(C)(C)c3ccc(OCc4ccnc(NS(C)(=O)=O)n4)cc3)cc2C#N)C1` [Compound A260], the IC50 is 500 to 2000 nM.
Consider `CC(C)(c1ccc(OCc2ccnc(NS(C)(=O)=O)c2N)cc1)c1cc(Cl)c(OCCCl)c(C#N)c1` [Compound A97], for which the IC50 is under 500 nM.
Turning to `CC(C)(c1ccc(OCc2ccnc(NS(C)(=O)=O)n2)cc1)c1cc(Cl)c(-c2cccc(Cl)c2)c(C#N)c1` [Compound A1], the IC50 was over 2000 nM.
In the case of `CN(C1CCN(Cc2ccc3c(ccn3-c3cc(Cl)c(OCCCl)c(C#N)c3)c2)CC1)S(C)(=O)=O` [Compound A237], the IC50 is over 2000 nM.
In the case of `CC(C)(c1ccc(-c2c[nH]c3nc(NS(C)(=O)=O)ncc23)cc1)c1cc(Cl)c(OCCCl)c(C#N)c1` [Compound A198] it was 500 to 2000 nM; in that of `CS(=O)(=O)NC1CCCN(CCc2ccc3c(ccn3-c3cc(Cl)c(OCCCl)c(C#N)c3)c2)C1` (stereo not shown) [Compound A245], over 2000 nM.
In the case of `CS(=O)(=O)Nc1nccc(COc2ccc3c(c2)CC[C@H]3c2cc(Cl)c(OCCCl)c(C#N)c2)n1` [A35(S)] it was 500 to 2000 nM; in that of `CCC(O)COc1c(Cl)cc(C(C)(C)c2ccc(OCc3ccnc(NS(C)(=O)=O)n3)cc2)cc1C#N` (stereo not shown) [Compound A174], over 2000 nM.
For `CS(=O)(=O)Nc1nccc(COc2ccc3c(ccn3-c3ccn(CCCCl)c(=O)c3)c2)n1` [Compound A115] the value was over 2000 nM; for `N#Cc1cc(-n2ccc3cc(OCc4coc(S(N)(=O)=O)c4)ccc32)cc(Cl)c1OCCCl` [Compound A20], 500 to 2000 nM; for `CC(C)(c1ccc(-c2cnc3nc(NS(C)(=O)=O)ncc3c2)cc1)c1cc(Cl)c(OCCCl)c(C#N)c1` [Compound A192], 500 to 2000 nM.
For the compound `CS(=O)(=O)NC[C@H]1CC[C@H](COc2ccc3c(ccn3-c3cc(Cl)c(OCCCl)c(C#N)c3)c2)CC1` [Compound A209], the IC50 is 500 to 2000 nM.
Regarding `CS(=O)(=O)Nc1ccn(CCc2ccc3c(ccn3-c3cc(Cl)c(OCCCl)c(C#N)c3)c2)c(=O)c1` [Compound A81], the IC50 was over 2000 nM.
For `Cn1nc(NC(=O)C(F)(F)F)cc1COc1ccc(C(C)(C)c2cc(Cl)c(OCCCl)c(C#N)c2)cc1` [Compound A127] the value was 500 to 2000 nM; for `CC(C)(c1ccc(-c2cnc3nc(NS(C)(=O)=O)ccc3n2)cc1)c1cc(Cl)c(OCCCl)c(C#N)c1` [Compound A279], 500 to 2000 nM.
Consider `CS(=O)(=O)N1CCC12CN(CCc1ccc3c(ccn3-c3cc(Cl)c(OCCCl)c(C#N)c3)c1)C2` [Compound A249], for which the IC50 was over 2000 nM.
For the compound `CC(C)(c1ccc(-c2n[nH]c3nc(NS(C)(=O)=O)ncc23)cc1)c1cc(Cl)c(OCCCl)c(C#N)c1` [Compound A203], the IC50 lay in the range of 500 to 2000 nM.
In the case of `CS(=O)(=O)Nc1nccc(COc2ccc3c(-c4cc(Cl)c(OCCCl)c(C#N)c4)csc3c2)n1` [Compound A61] it was under 500 nM; in that of `CC(C)(c1ccc(-c2cnc3nc(NS(C)(=O)=O)oc3c2)cc1)c1cc(Cl)c(OCCCl)c(C#N)c1` [Compound A257], over 2000 nM.
For `CS(=O)(=O)Nc1ncc2ccc(COc3cccc(-c4cc(Cl)c(OCCCl)c(C#N)c4)c3)cc2n1` [Compound A152] the value was over 2000 nM; for `CC(C)(c1ccc(-c2ccn3c(S(C)(=O)=O)c(N)nc3c2)cc1)c1cc(Cl)c(OCCCl)c(C#N)c1` [Compound A112], over 2000 nM; for `CS(=O)(=O)N[C@H]1CC[C@H](COc2ccc3c(ccn3-c3cc(Cl)c(OCCCl)c(C#N)c3)c2)CC1` [Compound A58], over 2000 nM.
In the case of `CC(C)(c1ccc(OCc2cncc(NS(C)(=O)=O)c2)cc1)c1cc(Cl)c(OCCCl)c(C#N)c1` [Compound A49] it was 500 to 2000 nM; in that of `CC(C)(c1ccc(OCc2ccnc(NS(C)(=O)=O)n2)cc1)c1cc(F)c(N2CC(CO)C2)c(C#N)c1` [Compound A253], over 2000 nM.
